Results as given in patent US20120122870A1, “Treatment Of Ischemia-Reperfusion Injury” (MUSC FOUNDATION FOR RESEARCH DEVELOPMENT, priority 2009, published 2012).

What follows are molecules tested on endogenous SK activity in MDA-MB-231 cells (assay: Cellular S1P production (endogenous SK activity) in MDA-MB-231 cells). Settings: Homo sapiens, MDA-MB-231, MDA-MB-231 cells incubated with 20 μg/mL of compound; percentage of S1P production inhibited.
Type: cell-based
Procedure: (§1) Human SK was incubated with 6 μg/mL of the indicated compounds, and then assayed for activity as described above. Values in the column labeled “Recombinant SK (% inhibition)” represent the percentage of SK activity that was inhibited. MDA-MB-231 cells were incubated with 20 μg/mL of the indicated compounds and then assayed for endogenous SK activity as indicated above. Values in the column labeled “Cellular S1P (% inhibition)” represent the percentage of S1P production that was inhibited. Additionally, MDA-MB-231 cells were treated with varying concentration of certain compounds and the amount of S1P produced by the cells was determined. Values in the column labeled “Cellular S1P IC50 (μM)” represent the concentration of compound required to inhibit the production of S1P by 50%. ND=not determined.

Molecule	inhibition at 20 µg/mL [%]
O=C(NCCc1ccncc1)c1cccc(-c2ccc(Cl)cc2)c1 [B84, 4′-Chloro-biphenyl-3-carboxylic acid (2-pyridin-4-yl-ethyl)-amide]	76
O=C(Nc1nc2cc(Cl)ccc2o1)c1ccccc1[N+](=O)[O-] [B87, N-(5-Chloro-benzooxazol-2-yl)-2-nitro-benzamide]	64
O=C(C=Cc1ccccc1)Nc1nc2cc(Cl)ccc2o1 [B88, N-(5-Chloro-benzooxazol-2-yl)-3-phenyl-acrylamide]	46
O=C(C=Cc1ccc([N+](=O)[O-])cc1)Nc1nc2cc(Cl)ccc2o1 [B89, N-(5-Chloro-benzooxazol-2-yl)-3-(4-nitro-phenyl)-acrylamide]	74
C=CCCCCCCCCC(=O)Nc1nc2cc(Cl)ccc2o1 [B90, Undec-10-enoic acid (5-chloro-benzooxazol-2-yl)-amide]	39
CCCCCCCCCCCCCC(=O)Nc1nc2cc(Cl)ccc2o1 [B91, Tetradecanoic acid (5-chloro-benzooxazol-2-yl)-amide]	0
CCCCCCCCCCCCCCCC(=O)Nc1nc2cc(Cl)ccc2o1 [B92, Hexadecanoic acid (5-chloro-benzooxazol-2-yl)-amide]	4
O=C(Nc1ccc(Cl)c(C(F)(F)F)c1)Nc1nc2cc(Cl)ccc2o1 [B93, 1-(5-Chloro-benzooxazol-2-yl)-3-(4-chloro-3-trifluoromethyl-phenyl)-urea]	53
O=C(Nc1ccc(Cl)c(C(F)(F)F)c1)Nc1nc2ccccc2s1 [B94, 1-Benzothiazol-2-yl-3-(4-chloro-3-trifluoromethyl-phenyl)-urea]	13
O=C(Nc1nc2cc(Cl)ccc2s1)c1ccccc1O [B96, N-(5-Chloro-benzothiazol-2-yl)-2-hydroxy-benzamide]	18
O=C(Nc1nc2cc(Cl)ccc2o1)c1cccc(F)c1 [B97, N-(5-Chloro-benzooxazol-2-yl)-3-fluoro-benzamide]	38

Same assay, conditions: Homo sapiens; MDA-MB-231 cells, varying concentrations; concentration inhibiting S1P production by 50%

IC50 [µM]	Molecule
22	O=C(Nc1nc2cc(Cl)ccc2o1)c1ccccc1[N+](=O)[O-] [B87, N-(5-Chloro-benzooxazol-2-yl)-2-nitro-benzamide]
5.8	O=C(C=Cc1ccc([N+](=O)[O-])cc1)Nc1nc2cc(Cl)ccc2o1 [B89, N-(5-Chloro-benzooxazol-2-yl)-3-(4-nitro-phenyl)-acrylamide]

The molecules below were run against T1, recombinant human SK (Homo sapiens, UniProt Q9NYA1) (assay: Recombinant human SK activity assay ([3H]sphingosine to [3H]S1P)). Settings: Human SK incubated with 6 μg/mL of compound; percentage of SK activity inhibited.
T1 construct: GST (glutathione-S-transferase) (N); made in house; host or cells: bacteria (pGEX bacterial expression vector)
Type: biochemical
Procedure: SK activity is measured by incubation of the recombinant SK with [^3H]sphingosine and 1 mM ATP under defined conditions, followed by extraction of the assay mixture with chloroform:methanol under basic conditions. […] Radioactivity in aliquots of the aqueous phase is then quantified as a measure of [^3H]S1P formation.
as §1

T1 sequence (Q9NYA1 whole entry): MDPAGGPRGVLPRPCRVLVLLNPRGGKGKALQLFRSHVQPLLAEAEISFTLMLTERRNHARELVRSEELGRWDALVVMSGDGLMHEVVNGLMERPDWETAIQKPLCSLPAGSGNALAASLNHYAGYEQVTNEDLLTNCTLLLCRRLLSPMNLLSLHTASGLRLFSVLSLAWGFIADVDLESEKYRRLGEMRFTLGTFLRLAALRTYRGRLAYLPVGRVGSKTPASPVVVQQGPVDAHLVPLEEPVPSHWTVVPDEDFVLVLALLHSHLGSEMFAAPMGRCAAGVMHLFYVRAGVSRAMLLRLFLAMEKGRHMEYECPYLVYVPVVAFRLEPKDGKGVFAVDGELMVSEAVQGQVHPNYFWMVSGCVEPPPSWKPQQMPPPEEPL

Recombinant SK (% inhibition) [%]	inhibition at 6 µg/mL [%]	Molecule
25	–	4-(4-Chloro-phenyl)-thiazole-2-carboxylic acid 4-phenoxy benzylamide [B54]
–	0	O=C(NC1CC1)C12CC3CC(C1)CC(c1ccc(Cl)cc1)(C3)C2 [A2, 3-(4-Chloro-phenyl)-adamantane-1-carboxylic acid cyclopropylamide]
–	6	CCSCCNC(=O)C12CC3CC(C1)CC(c1ccc(Cl)cc1)(C3)C2 [A3, 3-(4-Chloro-phenyl)-adamantane-1-carboxylic acid (2-ethylsulfanyl-ethyl)-amide]
–	19	CSc1ccc(CNC(=O)C23CC4CC(C2)CC(c2ccc(Cl)cc2)(C4)C3)cc1 [A14, 3-(4-Chloro-phenyl)-adamantane-1-carboxylic acid 4-methylsulfanyl-benzylamide]
–	8	O=C(NCc1ccc(C(F)(F)F)cc1)C12CC3CC(C1)CC(c1ccc(Cl)cc1)(C3)C2 [A16, 3-(4-Chloro-phenyl)-adamantane-1-carboxylic acid 4-trifluoromethyl-benzylamide]
–	56	O=C(NCc1cc(C(F)(F)F)cc(C(F)(F)F)c1)C12CC3CC(C1)CC(c1ccc(Cl)cc1)(C3)C2 [A17, 3-(4-Chloro-phenyl)-adamantane-1-carboxylic acid 3,5-bis-trifluoromethyl-benzylamide]
–	0	O=C(NCc1cc(F)cc(C(F)(F)F)c1)C12CC3CC(C1)CC(c1ccc(Cl)cc1)(C3)C2 [A18, 3-(4-Chloro-phenyl)-adamantane-1-carboxylic acid 3-fluoro-5-trifluoromethyl-benzylamide]
–	0	O=C(NCc1cc(F)cc(F)c1)C12CC3CC(C1)CC(c1ccc(Cl)cc1)(C3)C2 [A20, 3-(4-Chloro-phenyl)-adamantane-1-carboxylic acid 3,5-difluoro-benzylamide]
–	65	O=C(NCc1ccc(F)c(F)c1)C12CC3CC(C1)CC(c1ccc(Cl)cc1)(C3)C2 [A21, 3-(4-Chloro-phenyl)-adamantane-1-carboxylic acid 3,4-difluoro-benzylamide]
–	56	O=C(NCc1cc(F)c(F)c(F)c1)C12CC3CC(C1)CC(c1ccc(Cl)cc1)(C3)C2 [A22, 3-(4-Chloro-phenyl)-adamantane-1-carboxylic acid 3,4,5-trifluoro-benzylamide]
–	0	O=C(NCc1ccc(F)c(Cl)c1)C12CC3CC(C1)CC(c1ccc(Cl)cc1)(C3)C2 [A23, 3-(4-Chloro-phenyl)-adamantane-1-carboxylic acid 3-chloro-4-fluoro-benzylamide]
–	20	O=C(NCc1ccc(F)c(C(F)(F)F)c1)C12CC3CC(C1)CC(c1ccc(Cl)cc1)(C3)C2 [A24, 3-(4-Chloro-phenyl)-adamantane-1-carboxylic acid 4-fluoro-3-trifluoromethyl-benzylamide]
–	47	O=C(NCc1ccc(F)cc1Cl)C12CC3CC(C1)CC(c1ccc(Cl)cc1)(C3)C2 [A25, 3-(4-Chloro-phenyl)-adamantane-1-carboxylic acid 2-chloro-4-fluoro-benzylamide]
–	36	O=C(NCc1ccc(Cl)c(C(F)(F)F)c1)C12CC3CC(C1)CC(c1ccc(Cl)cc1)(C3)C2 [A26, 3-(4-Chloro-phenyl)-adamantane-1-carboxylic acid 4-chloro-3-trifluoromethyl-benzylamide]
–	50	NCc1c(Cl)c(Cl)c(Cl)c(CNC(=O)C23CC4CC(C2)CC(c2ccc(Cl)cc2)(C4)C3)c1Cl [A27, 3-(4-Chloro-phenyl)-adamantane-1-carboxylic acid 3-aminomethyl-2,4,5,6-tetrachloro-benzylamide]
–	6	CC(NC(=O)C12CC3CC(C1)CC(c1ccc(Cl)cc1)(C3)C2)c1ccc(Cl)cc1 (stereo not shown) [A28, 3-(4-Chloro-phenyl)-adamantane-1-carboxylic acid [1-(4-chloro-phenyl)-ethyl]-amide]
–	1	CS(=O)(=O)c1ccc(CNC(=O)C23CC4CC(C2)CC(c2ccc(Cl)cc2)(C4)C3)cc1 [A30, 3-(4-Chloro-phenyl)-adamantane-1-carboxylic acid 4-methanesulfonyl-benzylamide]
–	74	CN(C)c1ccc(CNC(=O)C23CC4CC(C2)CC(c2ccc(Cl)cc2)(C4)C3)cc1 [A31, 3-(4-Chloro-phenyl)-adamantane-1-carboxylic acid 4-dimethylamino-benzylamide]
–	17	O=C(NCc1ccc(OC(F)(F)F)cc1)C12CC3CC(C1)CC(c1ccc(Cl)cc1)(C3)C2 [A32, 3-(4-Chloro-phenyl)-adamantane-1-carboxylic acid 4-trifluoromethoxy-benzylamide]
–	10	O=C(NCc1cccc(OC(F)(F)F)c1)C12CC3CC(C1)CC(c1ccc(Cl)cc1)(C3)C2 [A33, 3-(4-Chloro-phenyl)-adamantane-1-carboxylic acid 3-trifluoromethoxy-benzylamide]
0	–	O=C(NCc1ccc(Oc2ccccc2)cc1)C12CC3CC(C1)CC(c1ccc(Cl)cc1)(C3)C2 [A34, 3-(4-Chloro-phenyl)-adamantane-1-carboxylic acid 4-phenoxy-benzylamide]
